Laboratory results: patent US12616203B2, “Use of 3-isoxazolidinones compounds as selective herbicides” (FMC Corporation, priority 2014, dated 2026)
Read-outs that look alike come from different tables or passages of the source.

Experiments:
barnyardgrass (BG) = assay: Ex5 PRE greenhouse, % control; type: in vivo, Echinochloa crus-galli; conditions: 28 DAT, g ai/ha by row: r10-26 2,4-DC 50/100/200 (3 rows each) + mesotrione 25/50/100 (cycling)
Procedure: (§1) Test compositions containing 2,4-DC Example 1C and mesotrione (Callisto® Herbicide, 40% active ingredient, Syngenta) and mixtures of 2-(2,4-dichlorophenyl)methyl-4,4-dimethyl-3-isoxazolidinone and mesotrione, were diluted with water to provide the appropriate test rate concentration.
(§2) The test weeds were barnyardgrass (BG) (Echinochloa crus-galli), jimsonweed (PA) (Datura stramonium), velvetleaf (VL) (Abutilon theophrasti), common cockelbur (CC) (Xanthium strumarium) and hairy beggarticks (HB) (Bidens pilosa). Crops included in the evaluation were field corn and sorghum.
(§3) For pre-emergence testing, four disposable fiber flats (6″ by 10″) for each rate of application of each herbicide solution were filled with top soil, to which seeds of each species were planted in furrows made by a template pressed on the top of the soil. The furrows with seeds were covered with soil and were watered well before application of the test compounds. Flats designated for treatment were placed in a spray chamber having a static platform and a movable sprayer and height of the spray nozzle was 10.5 inches above the soil level. Once the sprayer was calibrated using water for spray volume of 30 gallons per acre, flats were sprayed with sprayer at a speed to receive a coverage equivalent of 30 gallons per acre.
(§4) The application rates are those shown in Table 4 below for the individual herbicidal solutions and the herbicide compositions of the present invention. The pre-emergence flats were immediately placed in the greenhouse and watered lightly after treatment. Thereafter they were regularly watered and fertilized for the duration of the test. The control of weeds and injury to crops was evaluated in each experimental test at 28 days after treatment (DAT). […] Percent control was determined by a method similar to the 0 to 100 rating system disclosed in “Research Methods in Weed Science,” 2nd ed., B. Truelove, Ed.; Southern Weed Science Society; Auburn University, Auburn, Ala., 1977.

velvetleaf (VL) = assay: Ex5 PRE greenhouse, % control; type: in vivo, Abutilon theophrasti; conditions: 28 DAT, g ai/ha by row: r10-26 2,4-DC 50/100/200 (3 rows each) + mesotrione 25/50/100 (cycling)
Procedure: as §1, §2, §3, §4

jimsonweed = assay: Ex5 PRE greenhouse, % control; type: in vivo, Datura stramonium; conditions: 28 DAT, g ai/ha by row: r10-26 2,4-DC 50/100/200 (3 rows each) + mesotrione 25/50/100 (cycling)
Procedure: as §1, §2, §3, §4

[1] = tested on: weeds; Sugarcane (var. CTC 20); assay: Ex17 PRE greenhouse; type: in vivo; conditions: weed and rate in the words
Procedure: In this example a study was conducted to determine weed efficacy and sugarcane injury when 2,4 DC or isoxaflutole are applied either alone or tank-mix as preemergence against the weeds: Ivyleaf morningglory (Ipomoea hederacea, IPOHE), hairy beggartickss (Bidens pilosa, BIDPI), yellow nutsedge (Cyperus esculentus, CYPES), large crabgrass (Digitaria sanguinalis, DIGSA), and redroot pigweed (Amaranthus retroflexus, AMARE). The crop tested in this study was Sugarcane (var. CTC 20).
To determine weed efficacy and sugarcane selectivity, 2,4 DC (SC 36%) and isoxaflutole (Balance Flexx®, 20%) were applied PRE either alone or as tank-mix partners at rates mentioned below. 2,4 DC was applied at 500, 750, and 1000 g ai/ha while isoxaflutole was applied at 80, 100, and 120 g ai/ha. […] Treatments were applied PRE to sugarcane (var. CTC 20), ivyleaf morningglory, hairy beggarticks, yellow nutsedge, large crabgrass, and redroot pigweed. Weed species were planted in fiber flats (6″×10″) containing Pennington soil. Soil was watered before application and watered lightly after application. Flats were watered and fertilized routinely after treatment application.

weeds; Sugarcane (CTC20) = assay: Ex23 PRE greenhouse; conditions: 28 DAT, weed and rate in the words
Procedure: (Ipomoea spp). The tested crop in this study was Sugarcane (CTC20).
Sugarcane was direct seeded into 6″ plastic pots using 3-4″ sugarcane setts, oriented bud up, with bud leaf shield removed. 2,4 DC and sulfentrazone were applied alone or combined as tank-mix at each rate mentioned below. […] Treatments were replicated 3 times. […] Thereafter flats were watered and fertilized routinely. […] Visual percent sugarcane injury was recorded at 21 and 28 DAT, using a scale of 0 (no injury, observed as bleaching, stunting or necrosis) to 100 (complete plant death).

[2] = tested on: weeds; sweet corn, yellow corn, and sorghum; assay: Ex31 PRE greenhouse; type: in vivo; conditions: weed and rate in the words
From the text: Flats were watered and fertilized routinely after treatment application.

[3] = tested on: sweet corn, yellow corn, and sorghum; conditions: PRE; crop and rate in the words
From the text: Treatments were also applied ot sweet corn, yellow corn, and sorghum.
Treatments were applied before the emergence of Jimsonweed, velvetleaf, hairy beggarticks, common cocklebur, barnyardgrass, sweet corn, yellow corn, and sorghum. Plant species were planted in fiber flats (6″×10″) containing Pennington soil and flats were watered well before application and watered lightly after application. Flats were watered and fertilized routinely after treatment application.

Italian ryegrass = assay: Ex36 POST 2,4-DC + metsulfuron-methyl, % control 28 DAT, Colby; type: in vivo, Lolium perenne L. ssp. multiflorum
From the text: Crops screened were wheat and barley.

Barley [4] = assay: Ex40 POST 2,4-DC + metsulfuron-methyl, crop injury 7 DAT; type: in vivo; conditions: POST
Procedure: (§5) Treatments were applied to barley and wheat crops.
(§6) Non-ionic surfactant (NIS) was added to all treatments at 0.5% v/v. All plant species were direct seeded into 3″ plastic pots using metro-mix as growth media. At treatment common lambsquarters was 1.75″, common chickweed was 2″, wild mustard was 2.25″, wild oat was 5.5″, wild buckwheat was 2-5″, Italian ryegrass was 2-3″, wheat was 5.5″ and barley was 4.5″ in height. Plants were watered well before application and not watered 24 h after application. Plants were watered and fertilized routinely after treatment application. Each treatment was replicated four times. Treated flats were placed in randomized block design in the greenhouse.

wheat [5] = assay: as above; type: in vivo; conditions: POST
Procedure: as §5, §6

weeds; barley and wheat = assay: Ex40 POST greenhouse; type: in vivo; conditions: rate in the words
Procedure: as §5, §6

Littleseed canarygrass = assay: Ex34 PRE 2,4-DC + napropamide, % control, Colby; type: in vivo, Phalaris minor; conditions: 28 DAT
From the text: (§7) Thereafter flats were watered and fertilized routinely.

Common lambsquarters = assay: Ex34 PRE 2,4-DC + napropamide, % control, Colby; type: in vivo, Chenopodium album; conditions: 28 DAT
From the text: as §7

Blackgrass = assay: Ex34 PRE 2,4-DC + napropamide, % control, Colby; type: in vivo, Alopecurus myosuroides; conditions: 28 DAT
From the text: as §7

Wild buckwheat = assay: Ex34 PRE 2,4-DC + napropamide, % control, Colby; type: in vivo, Polygonum convolvulus; conditions: 28 DAT
From the text: as §7

Annual bluegrass = assay: Ex34 PRE 2,4-DC + napropamide, % control, Colby; type: in vivo, Poa annua; conditions: 28 DAT
From the text: as §7

weeds = assay: Ex18 PRE greenhouse; type: in vivo; conditions: weed and rate in the words
From the text: Additional treatments included application of metazachlor (Butisan®, 43.1%) at 750 g ai/ha, napropamide (Devrinol DF®, 50%) at 1260 g ai/ha, and dimethachlor (Teridox®, 48%) at 1000 g ai/ha. […] Treatments were applied just after the seeding of annual bluegrass, cheat, wild oat, quackgrass, field violet, blackgrass, littleseed canarygrass, silky windgrass, yellow foxtail, and goosegrass. […] Flats were watered and fertilized routinely after treatment application. Each treatment was replicated three times.

weeds; canola = assay: Ex34 PRE greenhouse; type: in vivo; conditions: rate in the words
From the text: as §7

Barley [6] = type: in vivo; conditions: 14 DAT, POST
Procedure: (§8) Treatments were applied to wheat and barley crops.
(§9) Nonionic surfactant was added at 0.5% v/v in all treatments. Treatments were applied to wheat (5.5″), barley (5″), wild oat (5.5″), common chickweed (2″), wild buckwheat (3″), and common lambsquarters (2″). All plant species were direct seeded into 3″ plastic pots using metro-mix as growth media and pots were watered well before application and watered 24 h after application. Plants were watered and fertilized routinely after treatment application. Each treatment was replicated four times.

wheat [7] = type: in vivo; conditions: 14 DAT, POST
Procedure: as §8, §9

weeds; Wheat and Barley = assay: Ex41 POST greenhouse; type: in vivo; conditions: rate in the words
Procedure: as §8, §9

Sorghum = assay: Ex46 PRE sorghum injury 7, 14, 21, 28 DAT; conditions: rate in the words
Procedure: Treatments were applied to sorghum at the time of planting using Pennington soil. Each treatment was replicated four times. Soil was watered before and after application for herbicide activation. Plants were watered and fertilized routinely. […] Visual percent crop injury was recorded at 7, 14, 21, and 28 days after treatment using a scale of 0 (no injury) to 100 (complete plant death).

[8] = r28-30 2,4-DC 50/100/200, r31-33 mesotrione 25/50/100, 25 g ai/ha
[9] = r28-30 2,4-DC 50/100/200, r31-33 mesotrione 25/50/100, 50 g ai/ha
[10] = r28-30 2,4-DC 50/100/200, r31-33 mesotrione 25/50/100, 100 g ai/ha
[11] = thifensulfuron-methyl 50 g ai/ha
[12] = thifensulfuron-methyl 75 g ai/ha
[13] = thifensulfuron-methyl 100 g ai/ha

For `CS(=O)(=O)c1ccc(C(=O)C2C(=O)CCCC2=O)c([N+](=O)[O-])c1` [mesotrione], the “% Control BG” value (barnyardgrass (BG); [8]) was 48%, the “% Control BG” value (barnyardgrass (BG); [9]) was 61% and the “% Control BG” value (barnyardgrass (BG); [10]) was 73%. The “% Control VL” value (velvetleaf (VL); [8]) was 73%, the “% Control VL” value (velvetleaf (VL); [9]) was 87% and the “% Control VL” value (velvetleaf (VL); [10]) was 100%. For the same compound, the “% Control JW” value (jimsonweed; [8]) was 68%, the “% Control JW” value (jimsonweed; [9]) was 90% and the “% Control JW” value (jimsonweed; [10]) was 93%. The “weed control in words” value [1] was “at 105 g controlled all weeds except ivyleaf morningglory”, the “weed control in words” value (weeds; Sugarcane (CTC20)) was “at 105 g controlled all weeds except morningglory” and the “weed control in words” value [2] was “alone gave control of velvetleaf and Jimsonweed at medium or highest rate while it controlled cocklebur and hairy beggarstick at the highest rate only”. For the same compound, the “crop safety in words” value [3] was “alone was safe on sweet corn and yellow corn at all three rates; safe on sorghum at 25 and 50 g”.
In the case of `COC(=O)c1ccccc1S(=O)(=O)NC(=O)Nc1nc(C)nc(OC)n1` [Metsulfuron-methyl, metsulfuron-methyl, reference compound], the Y (Italian ryegrass; metsulfuron-methyl alone 6 g ai/ha) is reported as 6%, the Y (Italian ryegrass; metsulfuron-methyl alone 9 g ai/ha) is reported as 18% and the Y (Italian ryegrass; metsulfuron-methyl alone 12 g ai/ha) is reported as 16%. For the same compound, the “Y (% crop injury, metsulfuron-methyl alone)” value (Barley [4]; metsulfuron-methyl 2 g ai/ha) was 5%, the “Y (% crop injury, metsulfuron-methyl alone)” value (Barley [4]; metsulfuron-methyl 3 g ai/ha) was 7% and the “Y (% crop injury, metsulfuron-methyl alone)” value (Barley [4]; metsulfuron-methyl 4 g ai/ha) was 9%. For the same compound, the “Y (% crop injury, metsulfuron-methyl alone)” value (wheat [5]; metsulfuron-methyl 2 g ai/ha) was 1%, the “Y (% crop injury, metsulfuron-methyl alone)” value (wheat [5]; metsulfuron-methyl 3 g ai/ha) was 0% and the “Y (% crop injury, metsulfuron-methyl alone)” value (wheat [5]; metsulfuron-methyl 4 g ai/ha) was 2%. The “weed control / crop safety in words” value (weeds; barley and wheat) was “alone controlled wild buckwheat, common chickweed, wild mustard, and common lambsquarters at all rates and was safe on both crops at all rates”.
Compound `CCN(CC)C(=O)C(C)Oc1cccc2ccccc12` (stereo not drawn) [napropamide, reference compound] has a Y (Littleseed canarygrass; Napropamide alone 315 g ai/ha) of 50%, a Y (Littleseed canarygrass; Napropamide alone 630 g ai/ha) of 87% and a Y (Littleseed canarygrass; Napropamide alone 1260 g ai/ha) of 100%. The Y (Common lambsquarters; Napropamide alone 315 g ai/ha) was 50%, the Y (Common lambsquarters; Napropamide alone 630 g ai/ha) was 73% and the Y (Common lambsquarters; Napropamide alone 1260 g ai/ha) was 91%. The Y (Blackgrass; Napropamide alone 315 g ai/ha) was 5%, the Y (Blackgrass; Napropamide alone 630 g ai/ha) was 7% and the Y (Blackgrass; Napropamide alone 1260 g ai/ha) was 15%. The Y (Wild buckwheat; Napropamide alone 315 g ai/ha) was 23%, the Y (Wild buckwheat; Napropamide alone 630 g ai/ha) was 23% and the Y (Wild buckwheat; Napropamide alone 1260 g ai/ha) was 38%. It also gave a Y (Annual bluegrass; Napropamide alone 315 g ai/ha) of 1%, a Y (Annual bluegrass; Napropamide alone 630 g ai/ha) of 77% and a Y (Annual bluegrass; Napropamide alone 1260 g ai/ha) of 92%. The “weed control in words” value (weeds) was “controlled all weeds except blackgrass” and the “weed control / crop safety in words” value (weeds; canola) was “alone at 630 g controlled littleseed canarygrass, at 1260 g controlled common lambsquarters, annual bluegrass and Italian ryegrass and was safe on canola at all rates”.
`COC(=O)c1sccc1S(=O)(=O)NC(=O)Nc1nc(C)nc(OC)n1` [Thifensulfuron-methyl, thifensulfuron-methyl, reference compound] was tested, and the “% crop injury for Thifensulfuron-M alone” value (Barley [6]; [11]) was 2%, the “% crop injury for Thifensulfuron-M alone” value (Barley [6]; [12]) was 2% and the “% crop injury for Thifensulfuron-M alone” value (Barley [6]; [13]) was 2%. The “% crop injury for Thifensulfuron-M alone” value (wheat [7]; [11]) was 0%, the “% crop injury for Thifensulfuron-M alone” value (wheat [7]; [12]) was 0% and the “% crop injury for Thifensulfuron-M alone” value (wheat [7]; [13]) was 1%. The “weed control / crop safety in words” value (weeds; Wheat and Barley) was “alone controlled all weeds except wild oat, and was safe on both crops”.
In the case of `CC1(C)CON(Cc2cc(Cl)ccc2Cl)C1=O` [2,5-DC, 2-(2,5-dichlorophenyl)methyl-4,4-dimethyl-3-isoxazolidinone], the “sorghum safety in words” value (Sorghum) is reported as “safe on sorghum at rates ranging from 31 to 125 g ai/ha irrespective of rating timings”.
